In brackets after ≈: the same amount, converted by molar mass.
Legend:
Moraxella catarrhalis = test: In vitro antibacterial activity against Branhamella catarrhalis Ravasio (resistance due to beta-lactamase); type: functional
Escherichia coli [1] = test: In vitro antibacterial activity against Escherichia coli 1077 (resistance due to beta-lactamase); type: functional
Escherichia coli [2] = test: In vitro antibacterial activity against Escherichia coli ESS; type: functional
Escherichia coli [3] = test: In vitro antibacterial activity against Escherichia coli JT425 (resistance due to beta-lactamase); type: functional
Escherichia coli [4] = test: In vitro antibacterial activity against Escherichia coli 10418; type: functional
Haemophilus influenzae [5] = test: In vitro antibacterial activity against Haemophilus influenzae Q1; type: functional
Klebsiella pneumoniae = test: In vitro antibacterial activity against Klebsiella pneumoniae T767; type: functional
Morganella morganii = test: In vitro antibacterial activity against Morganella morganii T361; type: functional
Proteus mirabilis = test: In vitro antibacterial activity against Proteus mirabilis C977; type: functional
Pseudomonas aeruginosa [6] = test: In vitro antibacterial activity against Pseudomonas aeruginosa 10662; type: functional
Staphylococcus aureus [7] = test: In vitro antibacterial activity against Staphylococcus aureus Russell (resistance due to beta-lactamase); type: functional
Streptococcus pneumoniae [8] = test: In vitro antibacterial activity against Streptococcus pneumoniae 1716; type: functional
Streptococcus pneumoniae [9] = test: In vitro antibacterial activity against Streptococcus pneumoniae PU7 (resistance due to modified target enzyme; type: functional
Streptococcus agalactiae = test: In vitro antibacterial activity against Streptococcus agalactiae 2798; type: functional
Staphylococcus aureus [10] = test: In vitro antibacterial activity against Staphylococcus aureus MB9; type: functional
Staphylococcus aureus [11] = test: In vitro antibacterial activity against Staphylococcus aureus Oxford; type: functional
Streptococcus pyogenes = test: In vitro antibacterial activity against Streptococcus pyogenes CN10; type: functional
[12] = test system: Staphylococcus epidermidis; test: In vitro antibacterial activity against Staphylococcus epidermidis PHLN20; type: functional
Enterococcus faecalis [13] = test: In vitro antibacterial activity against Streptococcus faecalis I; type: functional
Staphylococcus aureus [14] = test: In vitro antibacterial activity against Staphylococcus aureus V573 (resistance due to modified target enzyme); type: functional
[15] = Half-life in a rat liver homogenate preparation; type: ADME
Enterococcus faecalis [16] = test: In vitro antibacterial activity against S. faecalis I; type: functional
Haemophilus influenzae [17] = test: In vitro antibacterial activity against Haemophilus influenzae NEMC (resistance due to beta-lactamase); type: functional
Pseudomonas aeruginosa [18] = test: In vitro antibacterial activity was determined against Pseudomonas aeruginosa 10662; type: functional
Staphylococcus aureus [19] = test: In vitro antibacterial activity against Staphylococcus aureus Russell (resistance due to beta-lactamase; type: functional
Streptococcus pneumoniae [20] = test: In vitro antibacterial activity against Streptococcus pneumoniae PU7 (resistance due to modified target enzyme); type: functional
Staphylococcus aureus [21] = test: In vitro antibacterial activity against S. aureus MB9; type: functional

Row | SMILES | MIC (Moraxella catarrhalis) | MIC (Escherichia coli [1]) | MIC (Escherichia coli [2]) | MIC (Escherichia coli [3]) | MIC (Escherichia coli [4]) | MIC (Haemophilus influenzae [5]) | MIC (Klebsiella pneumoniae) | MIC (Morganella morganii) | MIC (Proteus mirabilis) | MIC (Pseudomonas aeruginosa [6]) | MIC (Staphylococcus aureus [7]) | MIC (Streptococcus pneumoniae [8]) | MIC (Streptococcus pneumoniae [9]) | MIC (Streptococcus agalactiae) | MIC (Staphylococcus aureus [10]) | MIC (Staphylococcus aureus [11]) | MIC (Streptococcus pyogenes) | MIC [12] | MIC (Enterococcus faecalis [13]) | MIC (Staphylococcus aureus [14]) | further results
1 | C/C=C(\C)C(=O)OCC1=C(C(=O)O)N2C(=O)[C@@H](NC(=O)/C(=N\O)c3cnc(N)s3)[C@H]2SC1 | 4 µg/mL (≈ 8.31 µM) | 0.25 µg/mL (≈ 0.519 µM) | ≤ 0.03 µg/mL | 0.5 µg/mL (≈ 1.04 µM) | 0.12 µg/mL (≈ 0.249 µM) | ≤ 0.03 µg/mL | 0.5 µg/mL (≈ 1.04 µM) | 0.12 µg/mL (≈ 0.249 µM) | 0.25 µg/mL (≈ 0.519 µM) | > 64 µg/mL | 0.5 µg/mL (≈ 1.04 µM) | ≤ 0.03 µg/mL | 0.5 µg/mL (≈ 1.04 µM) | ≤ 0.03 µg/mL | 0.5 µg/mL (≈ 1.04 µM) | 0.25 µg/mL (≈ 0.519 µM) | ≤ 0.03 µg/mL | 0.25 µg/mL (≈ 0.519 µM) | > 64 µg/mL | 8 µg/mL (≈ 16.6 µM) | –
2 | CO/N=C(\C(=O)N[C@@H]1C(=O)N2C(C(=O)O)=C(COC(C)=O)CS[C@H]12)c1csc(N)n1 [CEFOTAXIME] | 0.25 µg/mL (≈ 0.549 µM) | – | < 0.03 µg/mL | 0.5 µg/mL (≈ 1.1 µM) | < 0.03 µg/mL | < 0.03 µg/mL | 0.06 µg/mL (≈ 0.132 µM) | 2 µg/mL (≈ 4.39 µM) | < 0.03 µg/mL | 16 µg/mL (≈ 35.1 µM) | 2 µg/mL (≈ 4.39 µM) | < 0.03 µg/mL | 2 µg/mL (≈ 4.39 µM) | 0.12 µg/mL (≈ 0.263 µM) | 4 µg/mL (≈ 8.78 µM) | 2 µg/mL (≈ 4.39 µM) | < 0.03 µg/mL | 1 µg/mL (≈ 2.2 µM) | – | 32 µg/mL (≈ 70.3 µM) | half-life [15]: ≤ 15 min; MIC (Enterococcus faecalis [16]): > 64 µg/mL
3 | CC(C)=CC(=O)OCC1=C(C(=O)O)N2C(=O)[C@@H](NC(=O)/C(=N\O)c3cnc(N)s3)[C@H]2SC1 | 4 µg/mL (≈ 8.31 µM) | 0.25 µg/mL (≈ 0.519 µM) | < 0.03 µg/mL | 0.5 µg/mL (≈ 1.04 µM) | 0.06 µg/mL (≈ 0.125 µM) | 0.06 µg/mL (≈ 0.125 µM) | 0.5 µg/mL (≈ 1.04 µM) | 0.25 µg/mL (≈ 0.519 µM) | 0.25 µg/mL (≈ 0.519 µM) | – | – | < 0.03 µg/mL | – | < 0.03 µg/mL | 0.5 µg/mL (≈ 1.04 µM) | 0.25 µg/mL (≈ 0.519 µM) | < 0.03 µg/mL | 0.25 µg/mL (≈ 0.519 µM) | 8 µg/mL (≈ 16.6 µM) | 8 µg/mL (≈ 16.6 µM) | MIC (Haemophilus influenzae [17]): < 0.03 µg/mL; MIC (Pseudomonas aeruginosa [18]): > 64 µg/mL; MIC (Staphylococcus aureus [19]): 0.5 µg/mL (≈ 1.04 µM); MIC (Streptococcus pneumoniae [20]): 0.5 µg/mL (≈ 1.04 µM)
4 | C=C(C)C(=O)OCC1=C(C(=O)O)N2C(=O)[C@@H](NC(=O)/C(=N\O)c3cnc(N)s3)[C@H]2SC1 | 0.5 µg/mL (≈ 1.07 µM) | 0.06 µg/mL (≈ 0.128 µM) | < 0.03 µg/mL | 0.12 µg/mL (≈ 0.257 µM) | < 0.03 µg/mL | < 0.03 µg/mL | 0.12 µg/mL (≈ 0.257 µM) | 0.06 µg/mL (≈ 0.128 µM) | 0.06 µg/mL (≈ 0.128 µM) | 64 µg/mL (≈ 137 µM) | 0.25 µg/mL (≈ 0.535 µM) | < 0.03 µg/mL | 1 µg/mL (≈ 2.14 µM) | < 0.03 µg/mL | – | 0.06 µg/mL (≈ 0.128 µM) | < 0.03 µg/mL | 0.06 µg/mL (≈ 0.128 µM) | 32 µg/mL (≈ 68.5 µM) | 2 µg/mL (≈ 4.28 µM) | MIC (Staphylococcus aureus [21]): 0.25 µg/mL (≈ 0.535 µM)
5 | CC(=O)OCC1=C(C(=O)O)N2C(=O)[C@@H](NC(=O)/C(=N\O)c3cnc(N)s3)[C@H]2SC1 | 2 µg/mL (≈ 4.53 µM) | 0.06 µg/mL (≈ 0.136 µM) | < 0.03 µg/mL | 1 µg/mL (≈ 2.27 µM) | 0.06 µg/mL (≈ 0.136 µM) | 0.12 µg/mL (≈ 0.272 µM) | 0.06 µg/mL (≈ 0.136 µM) | 0.06 µg/mL (≈ 0.136 µM) | 0.06 µg/mL (≈ 0.136 µM) | > 32 µg/mL | 0.5 µg/mL (≈ 1.13 µM) | 0.06 µg/mL (≈ 0.136 µM) | 2 µg/mL (≈ 4.53 µM) | 0.06 µg/mL (≈ 0.136 µM) | 0.5 µg/mL (≈ 1.13 µM) | 0.25 µg/mL (≈ 0.566 µM) | – | 0.25 µg/mL (≈ 0.566 µM) | – | > 32 µg/mL | half-life [15]: ≤ 15 min; MIC (Haemophilus influenzae [17]): 0.06 µg/mL (≈ 0.136 µM); MIC (Enterococcus faecalis [16]): 4 µg/mL (≈ 9.06 µM)
